Test: Pharmacokinetics study of mice
Assay type: in vivo
Settings: mouse, plasma; male CD-1 mice, 2.5 mpk oral administration vs 0.5 mpk intravenous injection
From the text: The purpose of this experiment was to study the pharmacokinetics of the test compound in the plasma of male CD-1 mice after intravenous injection and oral administration.
The animals were randomly divided into two groups with 2 males in each group. The compounds were formulated into prescribed preparations. Intravenous formulations were formulated with 5% DMSO/95% (6% hydroxypropyl-β-cyclodextrin) to give a clear solution, and oral preparations were formulated with 0.1% Tween80/0.5% HPMC aqueous solution to give a homogeneous suspension.
Whole blood samples were collected from the saphenous vein of the animals 5 minutes, 15 minutes, 30 minutes, 1 hour, 2 hours, 4 hours, 8 hours, 12 hours, and 24 hours after administration. The whole blood sample was added to the centrifuge tube containing anticoagulant, and centrifuged at 3200 g for 10 minutes at 4° C. The supernatant of plasma was taken, frozen quickly on dry ice, and then stored in a −70±10° C. refrigerator until LC-MS/MS analysis.
WinNonlin™ Version 6.3.0 (Pharsight, Mountain View, Calif.) pharmacokinetic software was used to process the plasma drug concentration data of the compounds with a non-compartmental model. The peak concentration (Cmax), peak time (Tmax) and quantifiable end time were obtained directly from the blood drug concentration-time profile. […]

bioavailability: 48.9%
Compound: CCN1CCN(Cc2cc(F)c(NC(=O)Cc3ccc(-c4cnc5cc(OC)c(OC)cc5c4)nc3)cc2C(F)(F)F)CC1 [Compound 1]
